Earlier results on 1 compound are cited in patent US10610528B2, “Solid oral film dosage forms and methods for making same” (Intelgenx Corp., priority 2009, dated 2020).

Regarding `CN1CC(=O)N2[C@H](c3ccc4c(c3)OCO4)c3[nH]c4ccccc4c3C[C@@H]2C1=O` [Tadalafil], the Solubility in water entry was “practically insoluble in water”.
